Test [1] relates to H146 small-cell lung carcinoma cells. The following applies: 100 mg/kg intra-peritoneally every day for 21 days. How it is done:
The anti-tumour activity of the compounds of the invention is evaluated in a xenotransplant model of H146 small-cell lung carcinoma cells.
5×10^6 H146 cells are transplanted sub-cutaneously into immunosuppressed mice (NOD SCID strain). […] The tumour mass is measured twice a week from the commencement of treatment.

Test [2] has as its system MV4;11. Particulars: read-out: IC50 (concentration of compound that inhibits cell viability by 50%); MV4;11, 48 hours exposure. How it is done: (§1) The cytotoxicity studies were carried out on the three tumour lines of Example A. The cells are distributed onto microplates and exposed to the test compounds for 48 hours. The cell viability is then quantified by a colorimetric assay, the Microculture Tetrazolium Assay (Cancer Res., 1987, 47, 939-942).

The test system of test [3] is H146. The following applies: read-out: IC50 (concentration of compound that inhibits cell viability by 50%); H146, 48 hours exposure. The method, then: as §1
Test [4] relates to RS4;11. The following applies: read-out: IC50 (concentration of compound that inhibits cell viability by 50%); RS4;11, 48 hours exposure. The method, then:
as §1

In test [5] the test system is H146 cells. Particulars: at 3 μM, 6 hours exposure. How it is done: (§2) This study was carried out on three human tumour cell lines: • 1 small-cell lung carcinoma, H146, • 1 acute myeloid leukaemia, MV4; 11, • 1 leukaemia, RS4; 11.
(§3) The cell lines are cultured in an incubator at 37° C. in the presence of 5% CO2. The H146 and RS4;11 cells are cultured in complete RPMI 1640 medium containing 10% foetal calf serum, 2 mM of glutamine, 50 units/ml of penicillin, 50 μg/ml of streptomycin and 10 mM of Hepes buffer, pH=7.4.
(§4) The cells are distributed onto 6-well plates and exposed to the test compounds for 6 hours. They are then harvested and lysed and the caspase activity is measured in the cell lysates. This enzymatic measurement is carried out by measuring the appearance of a fluorigenic cleavage product (Pharmacia).

Test [6] relates to MV4;11 cells. The following applies: at 0.1 μM, 6 hours exposure. The method, then:
as §2, §3, §4

The test system of test [7] is RS4;11 cells. Particulars: at 1 μM, 6 hours exposure. How it is done:
as §2, §3, §4

SMILES strings stand for the structures.

Take `CN(C)CC[C@H](CSc1ccccc1)Nc1ccc(S(=O)(=O)NC(=O)c2ccc3c(c2)CC[C@@H]2CN(Cc4ccccc4-c4ccc(Cl)cc4)CCN32)cc1[N+](=O)[O-].Cl.Cl` [Example 20]: the “persistence of the effect after the end of treatment” value in test [1] is on record as “at least 40 days”. For the same compound, the tumour regression result in test [1] was “almost complete tumour regression”. Also, the figures for the IC50 in test [2], in test [3] and in test [4] were 29.5 nM, 305 nM and 16.5 nM, respectively. The caspase activity in test [5] stood at 22000 IU; in test [6], 20000 IU; in test [7], 23000 IU.

The record behind these values is US20080188460A1, “Tricyclic compounds, a process for their preparation and pharmaceutical compositions containing them” (LES LABORATOIRES SERVIER, priority 2007, published 2008).
